# Test results published in ChEMBL document CHEMBL4732115, “Discovery of novel cell-penetrating and tumor-targeting peptide-drug conjugate (PDC) for programmable delivery of paclitaxel and cancer treatment” (Eur J Med Chem, 2021).
# Calls of active or inactive are those of the source. The calls are words filed in the database; no cut-off is given here.
# What was measured:
# MCF7 [1] = test: Cytotoxicity against human MCF7 cells assessed as reduction in cell viability measured after 48 hrs by MTT assay; assay type: functional, cell-based; details: MCF7, 48 h
# HT-29 = test: Cytotoxicity against human HT-29 cells assessed as reduction in cell viability measured after 48 hrs by MTT assay; assay type: functional, cell-based; details: HT-29, 48 h
# [2] = Neurotoxicity in BALB/c mouse assessed as change in glutamine level at 12 umol/kg, ip administered every two days for 14 days measured post last dose by LC-MS analysis; assay type: toxicity, organism-based; details: in vivo, 336 h, dose 12 µmol/kg, time 14 day
# [3] = Neurotoxicity in BALB/c mouse assessed as change in histidine level at 12 umol/kg, ip administered every two days for 14 days measured post last dose by LC-MS analysis; assay type: toxicity, organism-based; details: in vivo, 336 h, dose 12 µmol/kg, time 14 day
# [4] = Drug uptake in tumor of BALB/c nude mouse xenografted with human MCF7 cells at 8 to 12 umol/kg, ip measured after 2 hrs by LC-MS analysis; assay type: ADME, organism-based, Neoplasm; details: in vivo, dose 8-12 µmol/kg
# [5] = Neurotoxicity in BALB/c mouse assessed as change in acetylcholine level at 12 umol/kg, ip administered every two days for 14 days measured post last dose by LC-MS analysis; assay type: toxicity, organism-based; details: in vivo, 336 h, dose 12 µmol/kg, time 14 day
# [6] = Neurotoxicity in BALB/c mouse assessed as increase in pain sensitivity at 12 umol/kg, ip administered every two days for 14 days by cold water tail immersion test; assay type: toxicity, organism-based; details: in vivo, 336 h, dose 12 µmol/kg, time 14 day
# [7] = Neurotoxicity in BALB/c mouse assessed as change in noradrenaline level at 12 umol/kg, ip administered every two days for 14 days measured post last dose by LC-MS analysis; assay type: toxicity, organism-based; details: in vivo, 336 h, dose 12 µmol/kg, time 14 day
# [8] = Neurotoxicity in BALB/c mouse assessed as change in serotonin level at 12 umol/kg, ip administered every two days for 14 days measured post last dose by LC-MS analysis; assay type: toxicity, organism-based; details: in vivo, 336 h, dose 12 µmol/kg, time 14 day
# [9] = Neurotoxicity in BALB/c mouse assessed as change in GABA level at 12 umol/kg, ip administered every two days for 14 days measured post last dose by LC-MS analysis; assay type: toxicity, organism-based; details: in vivo, 336 h, dose 12 µmol/kg, time 14 day
# [10] = Neurotoxicity in BALB/c mouse assessed as change in vanillylmandelic acid level at 12 umol/kg, ip administered every two days for 14 days measured post last dose by LC-MS analysis; assay type: toxicity, organism-based; details: in vivo, 336 h, dose 12 µmol/kg, time 14 day
# [11] = Neurotoxicity in BALB/c mouse assessed as change in glutamate level at 12 umol/kg, ip administered every two days for 14 days measured post last dose by LC-MS analysis; assay type: toxicity, organism-based; details: in vivo, 336 h, dose 12 µmol/kg, time 14 day
# HEK293 = test: Cytotoxicity against HEK293 cells assessed as reduction in cell viability measured after 48 hrs by MTT assay; assay type: cell-based; details: Homo sapiens, HEK293, 48 h
# MCF7 [12] = test: Antitumor activity against human MCF7 cells xenografted in BALB/c nude mouse assessed as reduction in tumor volume at 12 umol/kg, ip administered every two days for two weeks relative to control; assay type: functional; set-up: scale not given: the % may be the effect or the level left; details: dose 12 µmol/kg; time 2 weeks
# [13] = Neurotoxicity in BALB/c mouse assessed as change in histamine level at 12 umol/kg, ip administered every two days for 14 days measured post last dose by LC-MS analysis; assay type: toxicity, organism-based; details: in vivo, 336 h, dose 12 µmol/kg, time 14 day
# MCF7 [14] = test: Antitumor activity against human MCF7 cells xenografted in BALB/c nude mouse assessed as reduction in tumor weight at 12 umol/kg, ip administered every two days for two weeks relative to control; assay type: functional; set-up: scale not given: the % may be the effect or the level left; details: dose 12 µmol/kg; time 2 weeks
# A2780 = test: Cytotoxicity against human A2780 cells assessed as reduction in cell viability measured after 48 hrs by MTT assay; assay type: functional, cell-based; details: A2780, 48 h
# [15] = Neurotoxicity in BALB/c mouse assessed as increase in pain sensitivity at 12 umol/kg, ip administered every two days for 14 days by hot-plate test; assay type: toxicity, organism-based; details: in vivo, 336 h, dose 12 µmol/kg, time 14 day
# [16] = Neurotoxicity in BALB/c mouse assessed as change in dopamine level at 12 umol/kg, ip administered every two days for 14 days measured post last dose by LC-MS analysis; assay type: toxicity, organism-based; details: in vivo, 336 h, dose 12 µmol/kg, time 14 day
# [17] = Neurotoxicity in BALB/c mouse assessed as change in DOPAC level at 12 umol/kg, ip administered every two days for 14 days measured post last dose by LC-MS analysis; assay type: toxicity, organism-based; details: in vivo, 336 h, dose 12 µmol/kg, time 14 day
# [18] = Drug uptake in human MCF7 cells at 20 nM measured after 4 hrs by LC-MS analysis; assay type: ADME, cell-based; details: mcf7, 4 h, 0.02 µM
# MCF7 [19] = test: Induction of apoptosis in human MCF7 cells at IC50 measured after 4 hrs by Annexin-V FITC/propidium iodide staining based flow cytometry; assay type: functional, cell-based
# NCM460 = test: Cytotoxicity against human NCM460 cells assessed as reduction in cell viability measured after 48 hrs by MTT assay; assay type: cell-based; details: NCM460, 48 h
# [20] = Neurotoxicity in BALB/c mouse assessed as increase in pain sensitivity at 12 umol/kg, ip administered every two days for 14 days by hot water tail immersion test; assay type: toxicity, organism-based; details: in vivo, 336 h, dose 12 µmol/kg, time 14 day
# MCF7 [21] = test: Induction of mitochondrial membrane potential loss in human MCF7 cells at IC50 measured after 4 hrs by JC-1 staining based flow cytometry; assay type: functional, cell-based
# MCF7 [22] = test: Cell cycle arrest in human MCF7 cells assessed as increase in accumulation at G2/M-phase at IC50 measured after 4 hrs by […] flow cytometry; assay type: functional
# [23] = Cytotoxicity against human A2780/PTX cells assessed as reduction in cell viability measured after 48 hrs by MTT assay; assay type: functional, cell-based
compound,measurement,setting,value
H-VKRFKKFFR-NH2,IC50,MCF7 [1],> 50 µM
same,IC50,HT-29,> 50 µM
H-VKRFKKFFRKLKKSV-NH2,IC50,MCF7 [1],18.2 µM
same,IC50,HT-29,15.1 µM
CC(=O)O[C@H]1C(=O)[C@@]2(C)[C@H]([C@H](OC(=O)c3ccccc3)[C@]3(O)C[C@H](OC(=O)[C@H](O)[C@@H](NC(=O)c4ccccc4)c4ccccc4)C(C)=C1C3(C)C)[C@]1(OC(C)=O)CO[C@@H]1C[C@@H]2O [PACLITAXEL],IC50,MCF7 [1],0.0066 µM
same,Activity,[2],Toxic
same,Activity,[3],Toxic
same,Drug uptake,[4],Active
same,Activity,[5],Toxic
same,Activity,[6],Toxic
same,Activity,[7],Toxic
same,Activity,[8],Toxic
same,Activity,[9],Toxic
same,Activity,[10],Toxic
same,Activity,[11],Toxic
same,IC50,HEK293,16.3 nM
same,Activity,MCF7 [12],75.7%
same,Activity,[13],Toxic
same,Activity,MCF7 [14],65.7%
same,IC50,HT-29,0.0086 µM
same,IC50,A2780,15.2 nM
same,Activity,[15],Toxic
same,Activity,[16],Toxic
same,Activity,[17],Toxic
same,Drug uptake,[18],Active
same,Activity,MCF7 [19],Active
same,IC50,NCM460,9.2 nM
same,Activity,[20],Toxic
same,Activity,MCF7 [21],Active
same,Activity,MCF7 [22],Active
same,IC50,[23],23.9 µM
H-FFRKLKKSV-NH2,IC50,MCF7 [1],> 50 µM
same,IC50,HT-29,> 50 µM
H-KRFKKFFRK-NH2,IC50,MCF7 [1],> 50 µM
same,IC50,HT-29,> 50 µM
H-KFFRKLKKS-NH2,IC50,MCF7 [1],> 50 µM
same,IC50,HT-29,> 50 µM
H-RFKKFFRKL-NH2,IC50,MCF7 [1],> 50 µM
same,IC50,HT-29,> 50 µM
H-FKKFFRKLK-NH2,IC50,MCF7 [1],> 50 µM
same,IC50,HT-29,> 50 µM
H-KKFFRKLKK-NH2,IC50,MCF7 [1],> 50 µM
same,IC50,HT-29,> 50 µM
